# Entries after “also recorded” stand apart in the source; their conditions may differ. Counter-ions that a name gives are not always drawn. Like-named read-outs stand apart in the source and are kept apart here. Peptide text beside a SMILES is read from it.
# Assays:
# Assay type in all cases: cell-based
# [1] = test system: primary human fibroblasts
# Description: FIG. 6. Primary confluent fibroblasts were infected with AV.GFP3ori virus at an MOI=1000 particles/cell following treatment with brefeldin A (10 μg/ml), vinblastine (22 μM), cytochalasin B (1 μM), NH4Cl (2 mM), chloroquine (20 μm), LLnL (400 μM), and Z-LLL (4 μM), final concentration indicated in brackets. Cells were harvested at 96 hours post-infection and the transduction efficiency was compared to untreated rAAV infected cells by FACS analysis for GFP expression. To control for non-specific effects caused by toxicity of the compounds, the percentage of live cells was also assessed by the absence of propidium iodide incorporation.
# 80% confluent human primary fibroblasts were infected with AV.GFP3ori at an moi of 1000 DNA particles/cell. FIG. 16A depicts GFP transgene expression in the absence (left photographs) and presence of 40 μM LLnL (right photographs) at 96 hours post-infection. […] Top and bottom panels represent bright field and FITC-channel fluorescent photomicrographs, respectively. The mean (+/−SEM, N=3) percentage of cells transduced with rAAV, as measured by FACS sorting of GFP expressing cells, is presented in the bar graph of FIG. 16B. […] In this study, rAAV from infected cells was first immunoprecipitated with anti-VP1,2,3 (AAV-2 capsid) monoclonal antibody followed by Western blot detection of ubiquitin side chains using an anti-ubiquitin monoclonal antibody. […] Epithelia were infected with AV.GFP3ori (10,000 particles/cell) from the basolateral surface following treatment with ubiquitin ligase inhibitor dipeptides (0.2 mM H-Leu-Ala-OH and 0.2 mM H-His-Ala-OH).
# Initial studies were performed in confluent primary human fibroblasts since dose titrations and toxicity could be quickly assessed. Selected compounds were used to treat fibroblast monolayers prior to rAAV infection. rAAV transduction was assessed at 96 hours post-infection by FACS analysis, and the percentage of dead cells was simultaneously assessed by incorporation of propidium iodide.
# These tripeptides are structurally related to chloroquine but have different lipid solubility and specificity for cysteine proteases (Seglen, 1983). These molecules decrease endosomal degradation of molecules by a mechanism different than altering pH.
# Transduction of polarized airway epithelial cells and primary human fibroblasts. rAAV infection of fully differentiated bronchial cells was performed as described in Duan et al. (1998). For infections from the apical surface of the airway cells, 5 μl rAAV was mixed with 50 μl of culture media and applied directly onto the apical compartment of Millicell inserts (MOI=10,000 particles/cell). During apical infection, the basolateral side of the Millicell was continuously bathed in culture media. Gene transfer to the basal side was performed by inverting Millicell inserts and applying viral vector to the bottom of the supporting filter membrane in a 50 μl volume for 2 hours. Subsequently, Millicell inserts were returned to the upright position, in the continued presence of the original viral inoculum plus an additional 450 μl of media. For both apical and basolateral infections, rAAV containing media was removed after 24 hours and replaced with either fresh culture media (for the basal side) or exposed to air (for the apical side). To test the effect of different agents on the efficiency of AAV transduction in polarized airway cells, 1 μl of each solution was mixed with AAV prior to infection of airway epithelia. Agents were usually presented during the 24 hours AAV infection period unless indicated otherwise.
# [2] = test system: human bronchial epithelia; test: Southern blot of Hirt DNA for rAAV genomes in polarized airway epithelia; conditions: hypotonic EGTA treatment alone, apical infection
# Description: FIGS. 15A–C. Examination of rAAV endocytosis by Southern blot analysis of viral DNA. Hirt DNA from AV.GFP3ori infected or mock infected (Lanes 1 and 7 in both FIGS. 15A and 15B) human bronchial epithelia were extracted for a direct examination of viral genomes by Southern blotting against a P^32-labeled EGFP probe. FIG. 15A depicts viral binding studies in the presence and absence of LLnL with or without EGTA treatment prior to apical or basolateral infection for 1 hour at 4° C. Cell surface-bound virus was completely removed by trypsin (FIG. 15A, lanes 2 through 6). To determine the amount of the surface-bound rAVV, cells were infected with AV.GFP3ori for 1 hour at 4° C. and were not treated with trypsin prior to Hirt DNA extraction. Panel A: lane 8: apical AAV infection; lane 9: apical AAV infection in the presence of LLnL; lane 10: cells were pre-treated with hypotonic EGTA prior to apical infection in the presence of LLnL; lane 11: basolateral infection; lane 12: basolateral infection in the presence of LLnL. FIG. 15B depicts the results of studies evaluating rAAV internalization from either the apical or the basolateral surface in the presence or absence of LLnL, and the internalization from the apical surface after combined treatment with hypotonic EGTA and LLnL. To detect the net amount of the internalized viral genome, all samples in FIG. 15B were treated with trypsin just before Hirt DNA was harvested. The extent of the internalized virus at 4 hours (FIG. 15B, lanes 2 through 6) and 24 hours (FIG. 15B, lanes 8 through 12) incubation at 37° C. after infection is represented by the intensity of the 1.6 kb single stranded viral genome band. FIG. 15B; lane 2; apical AAV infection for 4 hours; lane 3: apical AAV infection in the presence of LLnL for 4 hours; lane 4: cells were pre-treated with hypotonic EGTA prior to apical infection in the presence of LLnL for 4 hours; lane 5: basal infection for 4 hours; lane 6: basolateral infection in the presence of LLnL for 4 hours; lane 8: apical infection for 24 hours; lane 9: apical infection in the presence of LLnL for 24 hours; lane 10: cells were pre-treated with hypotonic EGTA prior to apical infection in the presence of LLnL for 24 hours; lane 11: basolateral infection for 24 hours; lane 12: basolateral infection in the presence of LLnL for 24 hours. […]
# Molecular analysis of rAAV viral genomes owing infection of polarized airway epithelial cultures. […] Following binding, the extent of viral internalization was assessed by continuing incubations in the presence of virus at 37° C. for 4–24 hours. […] The 1.6 kb single stranded viral DNA, the 2.7 kb double stranded circular intermediate, and the 4.7 kb double stranded replication from viral genome were detected with a transgene EGFP specific probe at 5×10^6 cpm/ml. […]
# [3] = test system: polarized human bronchial epithelial cells; conditions: for rAAV transduction from the basolateral surface with ubiquitin ligase (E3) inhibitors: both dipeptides combined, 2 mM pretreatment 60 minutes, 0.2 mM during 24 hours infection; for rAAV transduction from the apical (mucosal) surface, in words: apical infection, agent at time of infection (LLnL 40 μM)
# Description: FIGS. 7A and 7B. Proteasome inhibitors differentially augment rAAV transduction from the apical or basolateral surfaces of airway epithelia. The efficiency and time course of rAAV transduction were evaluated in polarized airway epithelial cultures following infection with rAV.GFPori3 (MOI=10,000 particles/cell) in the presence or absence of 40 μM LLnL. Transgene expression was monitored by indirect fluorescence microscopy at the indicted time points by quantifying the mean number of GFP positive cells per 10× field (mean +/−SEM of 3 independent samples for each time point). The effect of LLnL treatment was compared between matched sets of tissue samples at each time point following infection from the apical (FIG. 7A) or basolateral (FIG. 7B) surfaces. The photomicrographs on the right side of each figure illustrate representative 20× fields for the 3 and 22 day post-infection time points.
# FIG. 9. Effects of different agents on AAV transduction from the basal surface of polarized bronchial epithelia. Fully differentiated human bronchial airway epithelia were treated with the indicated agents at the time of AAV infection (MOI=10,000 particles/cell) from the basolateral surface. […] Since most of the tested agents (except for hydroxyurea) were dissolved in DMSO, a vehicle control of 1% (vol/vol) DMSO was also performed to exclude the possibility of a non-specific effect. GFP expression was monitored at 48 hours post-infection by counting the number of GFP positive cells per 10 random 10× fields in the culture dishes. The data represent the mean +/−SEM of three independent infections for each tested chemical.
# FIG. 10. The proteasome inhibitor LLnL preferentially induces AAV transduction in ciliated cells. The cell types transduced by AAV were examined by alkaline phosphatase staining 3 days following basolateral infection of polarized epithelial cultures with AV.Alkphos infection (MOI=10,000 particles/cell) in the presence of or absence of 40 μM LLnL. […] 8 μm paraffin sections were used to histologically quantify the types of cells transduced. Three classifications were used, ciliated cells (with alkphos expression localized to the apical membrane and cilia), basal cells residing in the lower half of the epithelium with no contact with the lumen, and non-ciliated, columnar cells. Panel C (without LLnL) and D (with LLnL) show representative neutral red counter-stained cross-sections for each condition. The numbers of alkphos stained cells/2000 epithelial cells for the various cell types transduced by AAV are presented in panel E (mean +/−SEM from three independent Millicell insert samples).
# FIGS. 11A and 11B. Optimization of LLnL-enhanced transduction in polarized bronchial epithelia. Differentiated transwell cultures were infected with AV.GFP3ori (10,000 particles/cell) from either the basolateral (FIG. 11A) or the apical (FIG. 11B) surface with the indicated treatments involving LLnL and/or EGTA. All infections were carried out for 24 hours and GFP transgene expression was monitored by indirect fluorescent microscopy at the indicated times. Data represent the mean (+/−SEM, N=6) for each experimental condition. Experiments were performed in triplicate on transwells derived from samples obtained from two different patients. […]
# [4] = confluent fibroblasts, AV.GFP3ori MOI 1000, 96 hours post-infection, brefeldin A 10 μg/ml, vinblastine 22 μM, cytochalasin B 1 μM, NH4Cl 2 mM, chloroquine 20 μm, LLnL 400 μM, Z-LLL 4 μM
SMILES,"rAAV transduction (GFP expression) compared to untreated rAAV infected cells [1, 4]","rAAV transduction from the apical (mucosal) surface, in words [3]",also measured
"C[C@H]1CCC/C=C/[C@@H]2C[C@H](O)C[C@H]2[C@H](O)/C=C/C(=O)O1 [BFA, brefeldin A]",significant enhancement of rAAV transduction,,
O=C(O)CN(CCOCCOCCN(CC(=O)O)CC(=O)O)CC(=O)O [EGTA],,,increase in persistence of AAV DNA [2]: less than 4 fold
C[C@H](NC(=O)[C@@H](N)Cc1cnc[nH]1)C(=O)O [H-His-Ala-OH] (H-His-Ala-OH),,,rAAV transduction from the basolateral surface with ubiquitin ligase (E3) inhibitors [3]: enhanced rAAV transduction
CC(C)C[C@H](N)C(=O)N[C@@H](C)C(=O)O [H-Leu-Ala-OH] (H-Leu-Ala-OH),,,rAAV transduction from the basolateral surface with ubiquitin ligase (E3) inhibitors [3]: enhanced rAAV transduction
Cl.N [NH4Cl],,,rAAV transduction (GFP expression) compared to untreated rAAV infected cells [1]: significantly inhibited rAAV transduction
CC[C@@]1(O)C(=O)OCc2c1cc1n(c2=O)Cc2cc3ccccc3nc2-1 [camptothecin],,none of these agents facilitated rAAV transduction from the apical surface,
CCN(CC)CCCC(C)Nc1ccnc2cc(Cl)ccc12 (stereo not drawn) [chloroquine],significantly inhibited rAAV transduction,,
C=C1[C@@H](C)[C@H]2[C@H](Cc3ccccc3)NC(=O)[C@]23OC(=O)/C=C/[C@H](O)CCC[C@@H](C)C/C=C/[C@H]3[C@@H]1O [cytochalasin B],significant decrease in rAAV transduction,,
COc1cc([C@@H]2c3cc4c(cc3[C@@H](O[C@@H]3O[C@@H]5CO[C@@H](C)O[C@H]5[C@H](O)[C@H]3O)[C@H]3COC(=O)[C@H]23)OCO4)cc(OC)c1O [etoposide],,none of these agents facilitated rAAV transduction from the apical surface,
O=c1c(-c2ccc(O)cc2)coc2cc(O)cc(O)c12 [genistein],,none of these agents facilitated rAAV transduction from the apical surface,
NC(=O)NO [hydroxyurea],,none of these agents facilitated rAAV transduction from the apical surface,
"CC[C@]1(O)C[C@@H]2CN(CCc3c([nH]c4ccccc34)[C@@](C(=O)OC)(c3cc4c(cc3OC)N(C)[C@H]3[C@@](O)(C(=O)OC)[C@H](OC(C)=O)[C@]5(CC)C=CCN6CC[C@]43[C@@H]65)C2)C1 [vinblastine, vinblastine sulfate]",little effect on rAAV transduction; also recorded: did not inhibit rAAV-2 transduction,,

# Source: patent US7122335B1, “Compounds and methods to enhance rAAV transduction” (priority 1999, dated 2006)
